Experiments:
Assay type in all cases: in vivo
[1] = system: Cyperus serotinus Rottboel; test: Weed control, flooded paddy field, treatment at 1 leaf-stage (Test Example 1); details: after 4 weeks
Experimental: (§1) Carrier: 5 parts by weight of acetone
(§2) Surfactant: one part by weight of benzyloxy polyglycol ether.
(§3) Above described carrier and surfactant are mixed with one part by weight of the active compound ((a) ingredient and (b) ingredient) and the resulting preparation is then diluted with water to obtain given amount of the test drug (the formulation).
(§4) In a greenhouse, seeds or tubers of Echinochloa, Scirpus juncoides Roxburgh, Monochoria vaginalis Presl, annual broad-leaved weeds (Lindernia procumbens Philcox, Lindernia dubia L. Penn., Rotala indica Koehne, Elatine triandra Schk, Ammannia multiflora Roxb.), Cyperus serotinus Rottboel and Sagittaria pygmaea Miq. were inoculated in a 500 cm^2 pot filled with paddy field soil. After 2 leaf-stage of rice were transplanted, water was poured to a depth of about 3 cm. At 1.0 leaf-stage of Echinochloa oryzicola Vasing, a prescribed, diluted solution of the formulation of each active compound and each herbicidal compound in the table was separately or simultaneously applied to the surface of water. After the treatment, the water depth of 3 cm was maintained, and herbicidal effect was examined after 4 weeks. In the assessment of the herbicidal effect and the phytotoxicity, 100% refers to complete death and 0% refers to no effect or no phytotoxicity.

Echinochloa [2] = test: as above; details: after 4 weeks
Experimental: as §1, §2, §3, §4

[3] = system: Monochoria vaginalis Presl; test: as above; details: after 4 weeks
Experimental: as §1, §2, §3, §4

Sagittaria pygmaea Miq. [4] = test: as above; details: after 4 weeks
Experimental: as §1, §2, §3, §4

[5] = system: Scirpus juncoides Roxburgh; test: as above; details: after 4 weeks
Experimental: as §1, §2, §3, §4

[6] = system: annual broad-leaved weeds; test: as above; details: after 4 weeks
Experimental: as §1, §2, §3, §4

transplanted rice [7] = test: Phytotoxicity, flooded paddy field, treatment at 1 leaf-stage (Test Example 1)
Experimental: as §1, §2, §3, §4

[8] = system: Cyperus serotinus Rottboel; test: Weed control, flooded paddy field, treatment at 3 leaf-stage (Test Example 2); details: after 4 weeks
Experimental: as §1, §2, §3
as §4, with “Echinochloa, Cyperus difformis L.,” for “Echinochloa,”, “3.0” for “1.0”, “Echinochloa,” for “Echinochloa oryzicola Vasing,”

Echinochloa [9] = test: as above; details: after 4 weeks
Experimental: as §1, §2, §3
as §4, with “Echinochloa, Cyperus difformis L.,” for “Echinochloa,”, “3.0” for “1.0”, “Echinochloa,” for “Echinochloa oryzicola Vasing,”

[10] = system: Monochoria vaginalis Presl; test: as above; details: after 4 weeks
Experimental: as §1, §2, §3
as §4, with “Echinochloa, Cyperus difformis L.,” for “Echinochloa,”, “3.0” for “1.0”, “Echinochloa,” for “Echinochloa oryzicola Vasing,”

Sagittaria pygmaea Miq. [11] = test: as above; details: after 4 weeks
Experimental: as §1, §2, §3
as §4, with “Echinochloa, Cyperus difformis L.,” for “Echinochloa,”, “3.0” for “1.0”, “Echinochloa,” for “Echinochloa oryzicola Vasing,”

[12] = system: Scirpus juncoides Roxburgh; test: as above; details: after 4 weeks
Experimental: as §1, §2, §3
as §4, with “Echinochloa, Cyperus difformis L.,” for “Echinochloa,”, “3.0” for “1.0”, “Echinochloa,” for “Echinochloa oryzicola Vasing,”

[13] = system: annual broad-leaved weeds; test: as above; details: after 4 weeks
Experimental: as §1, §2, §3
as §4, with “Echinochloa, Cyperus difformis L.,” for “Echinochloa,”, “3.0” for “1.0”, “Echinochloa,” for “Echinochloa oryzicola Vasing,”

transplanted rice [14] = test: Phytotoxicity, flooded paddy field, treatment at 3 leaf-stage (Test Example 2)
Experimental: as §1, §2, §3
as §4, with “Echinochloa, Cyperus difformis L.,” for “Echinochloa,”, “3.0” for “1.0”, “Echinochloa,” for “Echinochloa oryzicola Vasing,”

Cyperus difformis L. = test: Weed control by spray treatment at 1.5 to 3.0 leaf-stage (Test Example 3); details: spray at 1.5 to 3.0 leaf-stage, 4 weeks later
Experimental: as §1, §2, §3
(§5) In a greenhouse, seeds of rice (var.: Nipponbare and RD23) and weeds (Echinochloa oryzicola Vasing, Echinochloa cruss-galli, Leptochloa chinensis, Cyperus difformis L., Cyperus iria L., annual broad-leaved weeds (Monochoria vaginalis Presl, Lindernia procumbens Philcox, Lindernia dubia L. Penn., Rotala indica Koehne, Elatine triandra Schk, Ammannia multiflora Roxb. and the like)) were sown in a 500 cm^2 pot filled with paddy field soil and covered with soil. Water was added to the pot (a depth of 0 cm) to be a wet condition, and each test plant was grown in the greenhouse to 1.5 to 3.0 leaf-stage, after then a prescribed, diluted solution of the formulation of each active compound and each herbicidal compound in the table were separately or simultaneously sprayed over the pots with plants. At 3 days after the treatment, the water depth of 3 cm was maintained, and 4 weeks later, herbicidal effect was then examined. In the assessment of the herbicidal effect and the phytotoxicity, 100% refers to complete death and 0% refers to no effect or no phytotoxicity.

Cyperus iria L. = test: as above; details: spray at 1.5 to 3.0 leaf-stage, 4 weeks later
Experimental: as §1, §2, §3, §5

Echinochloa cruss-galli = test: as above; details: spray at 1.5 to 3.0 leaf-stage, 4 weeks later
Experimental: as §1, §2, §3, §5

[15] = system: Echinochloa oryzicola Vasing; test: as above; details: spray at 1.5 to 3.0 leaf-stage, 4 weeks later
Experimental: as §1, §2, §3, §5

Leptochloa chinensis = test: as above; details: spray at 1.5 to 3.0 leaf-stage, 4 weeks later
Experimental: as §1, §2, §3, §5

[16] = system: Monochoria vaginalis Presl; test: as above; details: spray at 1.5 to 3.0 leaf-stage, 4 weeks later
Experimental: as §1, §2, §3, §5

[17] = system: annual broad-leaved weeds; test: as above; details: spray at 1.5 to 3.0 leaf-stage, 4 weeks later
Experimental: as §1, §2, §3, §5

[18] = system: submerged direct sown paddy (Nipponbare); test: Phytotoxicity, spray treatment at 1.5 to 3.0 leaf-stage (Test Example 3)
Experimental: as §1, §2, §3, §5

[19] = system: submerged direct sown paddy (RD-23); test: as above
Experimental: as §1, §2, §3, §5

In the case of `COc1nc(OC)nc(C(O)c2cccc(F)c2N(C)S(=O)(=O)C(F)F)n1` (stereo not drawn) [(a-3)], the “Herbicidal effect (%) CYPSEE” value ([1]; 30 g ai/ha) is reported as 90%, the “Herbicidal effect (%) CYPSEE” value ([1]; 50 g ai/ha) is reported as 90% and the “Herbicidal effect (%) ECHSS” value (Echinochloa [2]; 30 g ai/ha) is reported as 90%. The “Herbicidal effect (%) ECHSS” value (Echinochloa [2]; 50 g ai/ha) was 90%, the “Herbicidal effect (%) MOOVP” value ([3]; 30 g ai/ha) was 20% and the “Herbicidal effect (%) MOOVP” value ([3]; 50 g ai/ha) was 40%. For the same molecule, the “Herbicidal effect (%) SAGPY” value (Sagittaria pygmaea Miq. [4]; 30 g ai/ha) was 70%, the “Herbicidal effect (%) SAGPY” value (Sagittaria pygmaea Miq. [4]; 50 g ai/ha) was 90% and the “Herbicidal effect (%) SCPSS” value ([5]; 30 g ai/ha) was 60%. For the same molecule, the “Herbicidal effect (%) SCPSS” value ([5]; 50 g ai/ha) was 60%, the “Herbicidal effect (%) BBBBB” value ([6]; 30 g ai/ha) was 20% and the “Herbicidal effect (%) BBBBB” value ([6]; 50 g ai/ha) was 35%. For the same molecule, the “Phytotoxicity (%) ORYSP” value (transplanted rice [7]; 30 g ai/ha, treatment at 1 leaf-stage, after 4 weeks) was 0%, the “Phytotoxicity (%) ORYSP” value (transplanted rice [7]; 50 g ai/ha, treatment at 1 leaf-stage, after 4 weeks) was 0% and the “Herbicidal effect (%) CYPSEE” value ([8]; 30 g ai/ha) was 90%. For the same molecule, the “Herbicidal effect (%) CYPSEE” value ([8]; 50 g ai/ha) was 90%, the “Herbicidal effect (%) ECHSS” value (Echinochloa [9]; 30 g ai/ha) was 90% and the “Herbicidal effect (%) ECHSS” value (Echinochloa [9]; 50 g ai/ha) was 90%. The “Herbicidal effect (%) MOOVP” value ([10]; 30 g ai/ha) was 10%, the “Herbicidal effect (%) MOOVP” value ([10]; 50 g ai/ha) was 13% and the “Herbicidal effect (%) SAGPY” value (Sagittaria pygmaea Miq. [11]; 30 g ai/ha) was 70%. For the same molecule, the “Herbicidal effect (%) SAGPY” value (Sagittaria pygmaea Miq. [11]; 50 g ai/ha) was 70%, the “Herbicidal effect (%) SCPSS” value ([12]; 30 g ai/ha) was 60% and the “Herbicidal effect (%) SCPSS” value ([12]; 50 g ai/ha) was 60%. For the same molecule, the “Herbicidal effect (%) BBBBB” value ([13]; 30 g ai/ha) was 3%, the “Herbicidal effect (%) BBBBB” value ([13]; 50 g ai/ha) was 8% and the “Phytotoxicity (%) ORYSP” value (transplanted rice [14]; 30 g ai/ha, treatment at 3 leaf-stage, after 4 weeks) was 0%. For the same molecule, the “Phytotoxicity (%) ORYSP” value (transplanted rice [14]; 50 g ai/ha, treatment at 3 leaf-stage, after 4 weeks) was 0%, the “Herbicidal effect (%) CYPDI” value (Cyperus difformis L.; 30 g ai/ha) was 100% and the “Herbicidal effect (%) CYPDI” value (Cyperus difformis L.; 50 g ai/ha) was 100%. For the same molecule, the “Herbicidal effect (%) CYPIR” value (Cyperus iria L.; 30 g ai/ha) was 100%, the “Herbicidal effect (%) CYPIR” value (Cyperus iria L.; 50 g ai/ha) was 100% and the “Herbicidal effect (%) ECHCG” value (Echinochloa cruss-galli; 30 g ai/ha) was 100%. For the same molecule, the “Herbicidal effect (%) ECHCG” value (Echinochloa cruss-galli; 50 g ai/ha) was 100%, the “Herbicidal effect (%) ECHOR” value ([15]; 30 g ai/ha) was 100% and the “Herbicidal effect (%) ECHOR” value ([15]; 50 g ai/ha) was 100%. The “Herbicidal effect (%) LEFCH” value (Leptochloa chinensis; 30 g ai/ha) was 65%, the “Herbicidal effect (%) LEFCH” value (Leptochloa chinensis; 50 g ai/ha) was 80% and the “Herbicidal effect (%) MOOVP” value ([16]; 30 g ai/ha) was 65%. The “Herbicidal effect (%) MOOVP” value ([16]; 50 g ai/ha) was 85%, the “Herbicidal effect (%) BBBBB” value ([17]; 30 g ai/ha) was 65% and the “Herbicidal effect (%) BBBBB” value ([17]; 50 g ai/ha) was 85%. For the same molecule, the “Phytotoxicity (%) ORYSW*^1” value ([18]; 30 g ai/ha, spray at 1.5 to 3.0 leaf-stage, 4 weeks later) was 0%, the “Phytotoxicity (%) ORYSW*^1” value ([18]; 50 g ai/ha, spray at 1.5 to 3.0 leaf-stage, 4 weeks later) was 10% and the “Phytotoxicity (%) ORYSW*^2” value ([19]; 30 g ai/ha, spray at 1.5 to 3.0 leaf-stage, 4 weeks later, RD-23) was 0%. For the same molecule, the “Phytotoxicity (%) ORYSW*^2” value ([19]; 50 g ai/ha, spray at 1.5 to 3.0 leaf-stage, 4 weeks later, RD-23) was 0%.
For `CCOc1ccccc1OS(=O)(=O)NC(=O)Nc1nc(OC)cc(OC)n1` [(b-5), ethoxysulfuron], the “Herbicidal effect (%) CYPSEE” value ([1]; 20 g ai/ha) was 60%, the “Herbicidal effect (%) ECHSS” value (Echinochloa [2]; 20 g ai/ha) was 30% and the “Herbicidal effect (%) MOOVP” value ([3]; 20 g ai/ha) was 95%. For the same molecule, the “Herbicidal effect (%) SAGPY” value (Sagittaria pygmaea Miq. [4]; 20 g ai/ha) was 90%, the “Herbicidal effect (%) SCPSS” value ([5]; 20 g ai/ha) was 95% and the “Herbicidal effect (%) BBBBB” value ([6]; 20 g ai/ha) was 95%. The “Phytotoxicity (%) ORYSP” value (transplanted rice [7]; rice, in vivo, 4 weeks) was 10%, the “Herbicidal effect (%) CYPSEE” value ([8]; 20 g ai/ha) was 20% and the “Herbicidal effect (%) ECHSS” value (Echinochloa [9]; 20 g ai/ha) was 50%. The “Herbicidal effect (%) MOOVP” value ([10]; 20 g ai/ha) was 80%, the “Herbicidal effect (%) SAGPY” value (Sagittaria pygmaea Miq. [11]; 20 g ai/ha) was 60% and the “Herbicidal effect (%) SCPSS” value ([12]; 20 g ai/ha) was 90%. The “Herbicidal effect (%) BBBBB” value ([13]; 20 g ai/ha) was 60%, the “Phytotoxicity (%) ORYSP” value (transplanted rice [14]; rice, in vivo, 4 weeks) was 0% and the “Herbicidal effect (%) CYPDI” value (Cyperus difformis L.; 20 g ai/ha) was 100%. The “Herbicidal effect (%) CYPIR” value (Cyperus iria L.; 20 g ai/ha) was 100%, the “Herbicidal effect (%) ECHCG” value (Echinochloa cruss-galli; 20 g ai/ha) was 10% and the “Herbicidal effect (%) ECHOR” value ([15]; 20 g ai/ha) was 15%. The “Herbicidal effect (%) LEFCH” value (Leptochloa chinensis; 20 g ai/ha) was 15%, the “Herbicidal effect (%) MOOVP” value ([16]; 20 g ai/ha) was 95% and the “Herbicidal effect (%) BBBBB” value ([17]; 20 g ai/ha) was 90%. For the same molecule, the “Phytotoxicity (%) ORYSW*^1” value ([18]; rice, in vivo, 4 weeks) was 10% and the “Phytotoxicity (%) ORYSW*^2” value ([19]; RD-23, rice, in vivo, 4 weeks) was 10%.

Reference: patent US20080200337A1, “Mixed herbicide compositions for paddy field” (Bayer CropScience, priority 2007, published 2008)
